In US20080226718A1, “Indole and Azaindole Derivatives For the Treatment of Inflammatory and Autoimmune Diseases” (Brane Discovery S.r.l, priority 2005, published 2008):
Several values for one entry are separate records, joined by “and”; a condition that tells them apart may be missing. Equal values may be shown once.

Assays:
[1] = test system: experimental autoimmune encephalomyelitis (EAE); assay type: in vivo; settings: therapeutic
Procedure: Female SJL/J mice, 6-8 weeks of age, were obtained from Harlan-Nossan Italy. Mice were immunized s.c. with 200 μg PLP139-151 in 0.1 ml emulsion consisting of equal volumes of PBS and CFA (Difco Laboratories, Detroit, Mich.) and containing 6 mg/ml of Mycobacterium tuberculosis H37Ra (Difco). To induce a severe disease, in some experiments 400 ng Pertussis toxin (PTX) was administered i.v. at days 0 and 2 (Constantin, G. et al. Eur. J. Immunol., 28, 3523-3529, 1998). Mice were scored for EAE according to the following scale: 0, no disease; 1, tail weakness; 2, paraparesis; 3, paraplegia; 4, paraplegia with forelimb weakness or paralysis; 5, moribund or dead animals (Brocke S. et al., Autoimmune disease models. Academic Press, San Diego, 1-4, 1994).
The effects of compound of Example 1 (PCT/EP2005/051908) were determined on EAE (experimental autoimmune encephalomyelitis), the animal model of multiple sclerosis (Tables 4 and 5). SJL mice were immunized with PLP139-151 peptide from cerebral proteolipid. The disease model has relapses and remission periods, as described in relapsing-remitting MS, the most frequent form of human disease accounting for 85% of all MS patients.
In the therapeutic model (Table 5), mice received 70 mg/kg of Compound of Example 1 (PCT/EP2005/051908), daily, intraperitoneally, for 11 days starting from the day of clinical onset. The treated mice also received 4 doses intravenously (i.v.) of 10 mg/kg each. Control animals received vehicle (DMSO). Control animals developed disease with a mean day of onset of 13.8±3, while treated mice developed EAE at 13.5±2 days postimmunization. Mean (±S.E.M.) maximum clinical score in control animals was 1.75±0.6.

[2] = test system: encephalitogenic lymphocytes; test: Chemokine-induced adhesion of murine encephalitogenic T cells to ICAM-1; assay type: cell-based, SJL mice; settings: for Chemokine-induced Adhesion in encephalitogenic lymphocytes, Mean counts ± S.D., in presence of MIP3-β stimulation: 1 μM CCL19 (MIP-3beta); for Chemokine-induced Adhesion in encephalitogenic lymphocytes, Mean counts ± S.D., in presence of MIP3-β stimulation / Adhesion in encephalitogenic lymphocytes, Mean counts ± S.D., in absence of MIP3-β stimulation: ICAM-1
Procedure, shortened: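 Murine PLP139-151-reactive T cells from immunized SJL mice were pretreated with compound (5-50 μM, 37° C., 30-60 min or 1 h), then stimulated with 1 μM CCL19 (2-3 min, static) on ICAM-1-coated glass. Bound cells counted after washing and fixation; values are mean counts ±S.D of three experiments.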

NADPH-oxidase = test: Respiratory burst (H2O2 assay), NADPH-oxidase activation in PMNs; assay type: cell-based; settings: PMA 200 ng/ml; 10, 50, 100 μM; FIG. 1a
Procedure: NADPH-oxidase activation was measured as induction of H2O2 release (derived from dismutation of O2^−) triggered in PMNs and monocytes by PMA (200 ng/ml). Briefly, PMNs and monocytes were pretreated at 37° C. for 30-60 min with test compound at different concentrations, and stimulated with phorbol 12-myristate 13-acetate (PMA, 200 ng/ml) dissolved in 0.5 ml of a standard reaction mixture. Release of H2O2 was evaluated in real time at time points of 5 min by using a microplate fluorescence reader (Perkin-Elmer). Results are expressed as nmoles of H2O2 released over time by 10^6 cells. Shown are dose-response curves of inhibitory effect on H2O2 release over 60 min.

[3] = test system: encephalitogenic lymphocytes; test: Spontaneous adhesion of encephalitogenic T cells on purified VCAM-1; assay type: cell-based, SJL mice
Procedure: Spontaneous adhesion of encephalitogenic lymphocytes was measured in adhesion assays on purified ICAM-1 and VCAM-1 as previously described (Constantin G. et al., J. Immunol. 162, 1144-1149, 1999). Autoreactive T cells were obtained from SJL mice immunized with PLP139-151 as described (Piccio L. et al., J. Immunol. 168, 1940-1949, 2002). Lymphocytes were treated with test compound at concentrations between 5-100 μM for 1 h, while control/untreated cells were treated with vehicle (DMSO). Results are expressed as percentage of inhibition over control (=100%) ±S.D and are the mean of three-four experiments.
ICAM-1 and VCAM-1 are adhesion molecules from the family of immunoglobulins and control the migration of lymphocytes through the endothelium during inflammatory responses. Encephalitogenic T cells are activated lymphocytes displaying spontaneous adhesion on ICAM-1 and VCAM-1 and have increased migration capacities in inflammation sites. Spontaneous adhesion of encephalitogenic lymphocytes was measured in adhesion assays on purified ICAM-1 and VCAM-1 as described in the method.

For `COC(=O)c1[nH]c2cc(OC)c(OC)cc2c1-c1ccc(OC)cc1` [Example 1], the Mortality ([1]; 70 mg/kg i.p. daily for 11 days from clinical onset plus 4 i.v. doses of 10 mg/kg) was 0/6, the “Mean maximum clinical score” value ([1]; 70 mg/kg i.p. daily for 11 days from clinical onset plus 4 i.v. doses of 10 mg/kg, scale 0-5, ±S.E.M.) was 0.89 ± 0.23 and the “Inhibition of mean maximum clinical score” value ([1]; P<0.01) was 50%. The “Mean day of onset” value ([1]; treatment started at clinical onset) was 13.5±2 days postimmunization and 13.5 ± 2.0 days postimmunization, the “Block of chemokine-induced autoreactive lymphocyte adhesion, in words” value ([2]; 5-50 μM for 1 h, 1 μM CCL19) was “almost complete block” and the “Chemokine-induced Adhesion in encephalitogenic lymphocytes, Mean counts ± S.D., in presence of MIP3-β stimulation” value (shortened to “Chemokine-induced Adhesion”) ([2]; [cpd] 5 μM) was 10.3 ± 1.0. The “Adhesion in encephalitogenic lymphocytes, Mean counts ± S.D., in absence of MIP3-β stimulation” value (from here on “Adhesion … in absence of MIP3-β stimulation”) ([2]; [cpd] 5 μM) was 1.3 ± 1.0, the “Chemokine-induced Adhesion” value ([2]; [cpd] 10 μM) was 7.0 ± 1.0 and the “Adhesion … in absence of MIP3-β stimulation” value ([2]; [cpd] 10 μM) was 1.0 ± 1.0. The “Chemokine-induced Adhesion” value ([2]; [cpd] 25 μM) was 5.3 ± 2.0, the “Adhesion … in absence of MIP3-β stimulation” value ([2]; [cpd] 25 μM) was 0.4 ± 0.2 and the “Chemokine-induced Adhesion” value ([2]; [cpd] 50 μM) was 3.2 ± 1.0. For the same compound, the “Adhesion … in absence of MIP3-β stimulation” value ([2]; [cpd] 50 μM) was 0.4 ± 0.1, the “NADPH-oxidase activation (H2O2 release) in PMNs, in words” value (NADPH-oxidase) was “inhibits NADPH-oxidase activation” and the “Blocking spontaneous adhesion to VCAM-1, in words” value [3] was “very efficient”. For the same compound, the inhibition at 5 µM ([3]; Mus musculus, Lymphocyte, [cpd] 5 μM, 1 h, read-out: Inhibition of Spontaneous Adhesion in encephalitogenic lymphocytes (% of control/non-treated cells) VCAM-1) was 46%, the inhibition at 10 µM ([3]; Mus musculus, Lymphocyte, [cpd] 10 μM, 1 h, read-out: Inhibition of Spontaneous Adhesion in encephalitogenic lymphocytes (% of control/non-treated cells) VCAM-1 (converted)) was 66% and the inhibition at 25 µM ([3]; Mus musculus, Lymphocyte, [cpd] 25 μM, 1 h, read-out: Inhibition of Spontaneous Adhesion in encephalitogenic lymphocytes (% of control/non-treated cells) VCAM-1 (converted)) was 74%. The inhibition at 50 µM ([3]; Mus musculus, Lymphocyte, [cpd] 50 μM, 1 h, read-out: Inhibition of Spontaneous Adhesion in encephalitogenic lymphocytes (% of control/non-treated cells) VCAM-1 (converted)) was 92.4%.
